Experimental data published in PubChem BioAssay (NCI).
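Briefly, cells in 96-well plates were exposed to five compound concentrations for 48 h, and endpoints were estimated by linear interpolation. GI50 marks 50% less growth. TGI: concentration producing complete growth inhibition.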

Assays:
Experiment in all cases: NCI tumour cell line growth inhibition, 48 h
786-0 renal = system: 786-0 renal
CCRF-CEM leukemia = system: CCRF-CEM leukemia
HCC-2998 colon = system: HCC-2998 colon
IGROV1 ovarian = system: IGROV1 ovarian
MCF7 breast = system: MCF7 breast
MDA-MB-231 breast = system: MDA-MB-231 breast
NCI/ADR-RES ovarian = system: NCI/ADR-RES ovarian
OVCAR-8 ovarian = system: OVCAR-8 ovarian
SNB-19 CNS = system: SNB-19 CNS
UACC-257 melanoma = system: UACC-257 melanoma

Row | SMILES | GI50 (786-0 renal) [µM] | TGI (786-0 renal) [µM] | GI50 (CCRF-CEM leukemia) [µM] | TGI (CCRF-CEM leukemia) [µM] | GI50 (HCC-2998 colon) [µM] | TGI (HCC-2998 colon) [µM] | GI50 (IGROV1 ovarian) [µM] | TGI (IGROV1 ovarian) [µM] | GI50 (MCF7 breast) [µM] | TGI (MCF7 breast) [µM] | GI50 (MDA-MB-231 breast) [µM] | TGI (MDA-MB-231 breast) [µM] | GI50 (NCI/ADR-RES ovarian) [µM] | TGI (NCI/ADR-RES ovarian) [µM] | GI50 (OVCAR-8 ovarian) [µM] | TGI (OVCAR-8 ovarian) [µM] | GI50 (SNB-19 CNS) [µM] | TGI (SNB-19 CNS) [µM] | GI50 (UACC-257 melanoma) [µM] | TGI (UACC-257 melanoma) [µM]
1 | Cc1cc(Nc2cc(N)ncn2)c(=O)n2c1C(=O)NC21CCCCC1 | 22.9 | > 100 | > 100 | > 100 | > 100 | > 100 | 46.7 | > 100 | > 100 | > 100 | 82 | > 100 | > 100 | > 100 | > 100 | > 100 | > 100 | > 100 | > 100 | > 100
2 | O=C(NC(=S)Nc1cc(Cl)ccc1O)c1cccc(Br)c1 | 38 | > 100 | 3.68 | > 100 | 13.6 | > 100 | 9.67 | > 100 | 2.11 | > 100 | 17 | > 100 | 5.77 | 98 | 6.54 | > 100 | 8.78 | > 100 | 15.3 | > 100
3 | C/C(=N\NC(=S)N(C)C)c1ccccn1 | 0.0154 | 11.3 | 0.000277 | 0.232 |  | 15 | 0.00402 | 4.66 |  | 13.4 | 0.291 | 17.6 | 0.000321 | 2.31 | 0.00318 | 10.8 | 0.011 | 16.3 | 0.000438 | 
4 | Cc1cc(C(=O)c2ccccc2)c(C)c2c1[nH]c1ccc(Cl)cc12 | 0.0629 | 3.51 | 0.046 | > 100 | 0.176 | 8.14 | 0.0657 | 15.7 | 0.0361 | 17.9 | 0.255 | 5.71 | 0.0485 | > 100 | 0.148 | > 100 | 0.0541 | 35.1 | 4.48 | 79.6
5 | NC(=S)NN=C1CSSC1 | 11.9 | 72.5 | 3.77 | > 100 | 6.74 | 40.3 | 5 | 63.1 | 2.85 | 17.6 | 1.77 | 9.86 | 4.11 | > 100 | 2.94 | 23.4 | 2.46 | 11.4 | 1.93 | 17.8
6 | Nc1c(C(=O)Nc2cccc(Cl)c2Cl)sc2nc3c(cc12)C(=O)CCC3 | > 100 | > 100 | > 100 | > 100 | > 100 | > 100 | > 100 | > 100 | > 100 | > 100 | > 100 | > 100 | > 100 | > 100 | > 100 | > 100 | 4.64 | > 100 | > 100 | > 100
7 | CC(C)=CCCC(C)C1=C(O)C(=O)C(C)=CC1=O (stereo unspecified) |  | 26.9 |  | > 20.5 |  | 27.9 |  | 32.8 |  | 31.1 |  | 7.94 |  | > 49.1 |  | 40.9 |  | > 62.4 |  | 26.1
8 | O=C(O)c1cc2ccccc2c2c1C(=O)c1ccccc1-2 |  | > 100 |  | > 100 |  | > 100 |  | > 100 |  | > 100 |  | > 100 |  | > 100 |  | > 100 |  | > 100 |  | > 100
9 | CCN(CC)C(=S)[S][Bi]([S]C(=S)N(CC)CC)[S]C(=S)N(CC)CC | 0.163 | 0.299 | 0.0193 |  | 1.6 | 3.02 | 0.577 | 1.8 | 0.119 | 0.349 | 0.133 | 0.338 | 0.277 | 0.85 | 0.284 | 0.755 | 1.71 | 3.08 | 0.178 | 0.384
10 | COC(=O)C(C)NC(=O)c1ccccc1I(OS(=O)(=O)C(F)(F)F)c1ccccc1 (stereo unspecified) | 25 | 51 | 20.3 | 60.4 | 14.7 | 32.3 | 36.4 | > 100 | 22.3 | > 65.5 | 15.6 | 34.5 | 20.1 | 42.9 | 36.3 | > 100 | 26.3 | > 65.4 | 42.6 | > 100
11 | O=C1C(Cl)=C(Nc2cccc(O)c2)C(=O)N1Cc1ccc(Cl)cc1Cl | 1.94 | 18.8 | 2.82 | 52.7 | 3.55 | 16.4 | 1.17 | 13.8 | 10.9 | 30.7 | 1.17 | 11 | 2 | 26.6 | 1.94 | 27.1 | 3.39 | 33.8 | 8.76 | 21.5
